Assay results taken from patent US20260226034A1 (The Rockefeller University, priority 2023, published 2026).

Biological target: NSP14 (Severe acute respiratory syndrome coronavirus 2, UniProt P0DTD1)
Assay: NSP14 MTase inhibition assay at 37° C. (MTase-Glo SAH detection)
Assay type: biochemical, SARS-CoV-2
Settings: 0.3 nM NSP14, 2.5 μM SAM, 2.5 μM GpppA RNA, 45 min at 37° C.; read-out: Nsp14 Mtase Inh. IC50
Protocol: NSP14 MTase assay at 37° C. (0.3 nM NSP14 as final enzyme concentration)
The NSP14 MTase assay at 37° C. is carried out in 384-well flat bottom polystyrene microplates (Greiner, 781075). Per well, 10 μl of 1×NSP14 reaction buffer (50 mM Tris-HCl, pH 7.5, 6 mM KCl, 1.25 mM MgCl2, 1 mM DTT, and 0.01% Tween-20) are dispensed in columns 1-23 using a Thermo Multidrop Combi dispenser (Thermo Scientific). 0.1 μl of serially diluted compounds in DMSO are dispensed into columns 1-22 of the assay microplates with a Janus 384 MDT NanoHead (PerkinElmer). In wells of column 23, which serve as negative controls, no compounds are added.
The NSP14 reaction is started by adding 4 μl of a 4× substrate solution containing S-adenosyl methionine (SAM, 10 μM) and GpppA RNA (10 μM) prepared in 1×NSP14 reaction buffer. Any addition of reagents is followed by a 30 second centrifugation at 500×g to ensure that all liquid was collected at the bottom of the well. The final concentrations of NSP14, SAM, and GpppA RNA are 0.3 nM, 2.5 μM, and 2.5 μM, respectively. The final reaction volume is 16 μl. Plates are sealed and incubated for 45 min at 37° C.
For SAH detection, 1 μl 5× MTase-Glo™ Reagent (Promega) is added to each well, plates are mixed for 1-2 minutes and incubated at room temperature for 30 minutes. 5 μl of room-temperature MTase-Glo™ Detection Solution (Promega) is added to each well, plates are mixed for 1-2 minutes and incubated at room temperature for 30 minutes. Luminescence signals of each well are recorded in relative light units (RLUs) using a Biotek Synergy Neo plate reader (BioTek, Winooski, VT). The SAH production is normalized against the positive control (PK, column 24) and negative control (NK, column 23) as follows: normalized % inhibition=100×(RLUsample-RLUaverageNK)/(RLUaveragePK-RLUaverageNK).

Point of comparison: `COc1ncc(N2CC[C@@H](NC(=O)c3cc(S(=O)(=O)c4ccc5[nH]ncc5c4)c(C)n3C)C2)cn1` [A.124], IC50 0.23 nM. Against it:
- Cc1c(S(=O)(=O)c2ccc3[nH]ncc3c2)cc(C(=O)N[C@@H]2CCN(c3ccc(C#N)c(C#N)c3)C2)n1C [A.108] — lower, < 0.15 nM
- Cc1c(S(=O)(=O)c2ccc3[nH]ncc3c2)cc(C(=O)N[C@@H]2CCN(c3cccc(C(F)F)c3)C2)n1C [A.86] — 11-fold higher, 2.5 nM
- Cc1c(S(=O)(=O)c2ccc3[nH]ncc3c2)cc(C(=O)N[C@@H]2CCN(c3cccc(C(F)(F)F)n3)C2)n1C [A.38] — 3.5-fold higher, 0.8 nM
- COc1cnc(N2CC[C@@H](NC(=O)c3cc(S(=O)(=O)c4ccc5[nH]ncc5c4)c(C)n3C)C2)cn1 [A.113] — lower, < 0.15 nM
- Cc1c(S(=O)(=O)c2ccc3[nH]ncc3c2)cc(C(=O)N[C@@H]2CCN(c3cnn(C)c(=O)c3)C2)n1C [A.111] — lower, < 0.15 nM
- Cc1c(S(=O)(=O)c2ccc3c(cnn3C)c2)cc(C(=O)NCc2c(F)ccc3cnn(C)c23)n1C [A.18] — 78-fold higher, 18 nM
- Cc1c(S(=O)(=O)c2ccc3[nH]ncc3c2)cc(C(=O)N[C@@H]2CCN(c3ccccc3C(F)(F)F)C2)n1C [A.103] — 22-fold higher, 5.1 nM
- Cc1c(S(=O)(=O)c2ccc3[nH]ncc3c2)cc(C(=O)N[C@@H]2CCN(c3ncccc3F)C2)n1C [A.43] — 1.8-fold higher, 0.42 nM
- Cc1c(S(=O)(=O)c2ccc3[nH]ncc3c2)cc(C(=O)N[C@@H]2CCN(c3cccc(F)c3)C2)n1C [A.87] — 3.3-fold higher, 0.75 nM
- CN=S(=O)(c1ccc2[nH]ncc2c1)c1cc(C(=O)N[C@@H]2CCN(c3ncc(F)cn3)C2)n(C)c1C (stereo partly drawn) [A.70] — 17-fold higher, 3.9 nM
- Cc1c(S(=O)(=O)c2ccc3[nH]ncc3c2)cc(C(=O)N[C@@H]2CCN(c3ccnc(C(F)(F)F)n3)C2)n1C [A.92] — lower, < 0.15 nM
- Cc1nc(N2CC[C@@H](NC(=O)c3cc(S(=O)(=O)c4ccc5[nH]ncc5c4)c(C)n3C)C2)nc(C)c1F [A.75] — 2.2-fold higher, 0.51 nM
- Cc1c(S(=O)(=O)c2ccc3[nH]ncc3c2)cc(C(=O)N[C@@H]2CCN(c3ccc(F)nc3)C2)n1C [A.56] — within 1.5-fold, 0.2 nM
- Cc1c(S(=O)(=O)c2ccc3[nH]ncc3c2)cc(C(=O)N[C@@H]2CCN(c3nccc(C(F)F)n3)C2)n1C [A.122] — within 1.5-fold, 0.3 nM
- Cc1c(S(=O)(=O)c2ccc3c(cnn3C)c2)cc(C(=O)NCc2c(F)ccc3occc23)n1C [A.19] — 91-fold higher, 21 nM

Same assay, conditions: 37° C., 0.3 nM NSP14, 2.5 μM SAM, 2.5 μM GpppA RNA; read-out: Nsp14 Mtase Inh. IC50

Point of comparison: `Cc1cc(C)c(CNC(=O)c2cc(S(=O)(=O)c3ccc4[nH]ncc4c3)c(C)n2C)c(=O)[nH]1` [B.161], IC50 2.7 nM. Against it:
- Cc1c(S(=O)(=O)c2cc(F)c3[nH]ncc3c2)cc(C(=O)N[C@@H](C)c2cccc3cnn(C4CC4)c23)n1C (single isomer, unassigned) [B.88] — 8.1-fold higher, 22 nM
- Cc1c(S(=O)(=O)c2ccc3[nH]ncc3c2)cc(C(=O)NCc2ccnn2CC(F)F)n1C [B.162] — within 1.5-fold, 2.2 nM
- Cc1c(S(=O)(=O)c2ccc3[nH]nc(F)c3c2)cc(C(=O)NCc2cccc3cnn(C)c23)n1C [B.12] — 4.3-fold lower, 0.63 nM
- Cc1c(S(=O)(=O)c2ccc3[nH]ncc3c2)cc(C(=O)NCc2cccnc2N2CCC(F)(F)C2)n1C [B.20] — 3.6-fold lower, 0.75 nM
- Cc1c(S(=O)(=O)c2ccc3[nH]ncc3c2)cc(C(=O)NCc2nccc3cnn(C4CC4)c23)n1C [B.118] — 5.6-fold lower, 0.48 nM
- Cc1c(S(=O)(=O)c2ccc3[nH]ncc3c2)cc(C(=O)NCc2ccc3ncnn3c2)n1C [B.149] — 6.7-fold higher, 18 nM
- Cc1c(S(=O)(=O)c2cc(Cl)c3[nH]ncc3c2)cc(C(=O)NCc2cccc3cnn(C4CC4)c23)n1C [B.51] — 12-fold lower, 0.22 nM
- Cc1c(S(=O)(=O)c2cc(CO)c3[nH]ncc3c2)cc(C(=O)NCc2cccc3cnn(C4CC4)c23)n1C [B.45] — within 1.5-fold, 4 nM
- Cc1c(S(=O)(=O)c2ccc3[nH]ncc3c2)cc(C(=O)N[C@H]2CCc3c(F)ccc(F)c32)n1C (single isomer, unassigned) [B.140] — 8.7-fold lower, 0.31 nM
- Cc1cc(S(=O)(=O)c2cc(C(=O)NCc3c(F)ccc4cnn(C5CC5)c34)n(C)c2C)cc2cn[nH]c12 [B.28] — 11-fold lower, 0.24 nM
- Cc1c(S(=O)(=O)c2ccc3[nH]ncc3c2)cc(C(=O)NCc2ccn(C3CC3)n2)n1C [B.168] — 64-fold higher, 172 nM
- Cc1c(S(=O)(=O)c2ccc3[nH]ncc3c2)cc(C(=O)NC2CCc3cc(F)c(F)cc32)n1C (racemic) [B.92] — 10-fold higher, 27 nM
- Cc1c(S(=O)(=O)c2ccc(C3CC3)cc2)cc(C(=O)NCc2cccc3cnn(C)c23)n1C [B.7] — 42-fold higher, 114 nM
- Cc1c(S(=O)(=O)c2ccc3[nH]ncc3c2)cc(C(=O)NCc2ccc(=O)n(C)n2)n1C [B.133] — 2.8-fold higher, 7.6 nM
- Cc1c(S(=O)(=O)c2cc(Cl)c3[nH]ncc3c2)cc(C(=O)NCc2ccnn2C)n1C [B.134] — 15-fold lower, 0.18 nM
- Cc1c(S(=O)(=O)c2ccc3[nH]ncc3c2)cc(C(=O)NCc2cncc3cnn(C)c23)n1C [B.49] — 5.5-fold lower, 0.49 nM
- Cc1c(S(=O)(=O)c2ccc3[nH]ncc3c2)cc(C(=O)NCc2c(F)ccc(=O)n2C)n1C [B.179] — lower, < 0.15 nM
- Cc1c(S(=O)(=O)c2ccc3c(c2)CC(=O)N3)cc(C(=O)NCc2cccc3cnn(C)c23)n1C [B.5] — 3.2-fold higher, 8.7 nM
- Cc1c(S(=O)(=O)c2cc(F)c3ncccc3c2)cc(C(=O)NCc2cccc3cnn(C)c23)n1C [B.17] — 15-fold higher, 41.8 nM
- Cc1c(S(=O)(=O)c2ccc3[nH]ncc3c2)cc(C(=O)NCc2ccccc2)n1C [B.67] — within 1.5-fold, 2.6 nM
- Cc1c(S(=O)(=O)c2ccc3[nH]ncc3c2)cc(C(=O)NCc2c(F)ccc3c2N(C)C(=O)C3)n1C [B.52] — 18-fold lower, 0.15 nM
- Cc1c(S(=O)(=O)c2cc(F)c3[nH]nc(F)c3c2)cc(C(=O)NCc2c(F)ccc3cnn(C4CC4)c23)n1C [B.99] — 18-fold lower, 0.15 nM
- Cc1c(S(=O)(=O)c2ccc3[nH]ncc3c2)cc(C(=O)NCC2(COc3ncc(F)cn3)CC2)n1C [B.197] — the same, 2.7 nM
- COc1nccc(F)c1CNC(=O)c1cc(S(=O)(=O)c2ccc3[nH]ncc3c2)c(C)n1C [B.112] — lower, < 0.15 nM
- Cc1c(S(=O)(=O)c2ccc3[nH]ncc3c2)cc(C(=O)NCc2c[nH]c(=O)c3cnn(C)c23)n1C [B.115] — 16-fold lower, 0.17 nM
- Cc1[nH]c(=O)c2ccccc2c1CNC(=O)c1cc(S(=O)(=O)c2ccc3[nH]nc(F)c3c2)c(C)n1C [B.124] — 7.5-fold lower, 0.36 nM
- Cc1c(S(=O)(=O)c2ccc3[nH]ncc3c2)cc(C(=O)NC2CCc3cc(C#N)ccc32)n1C (stereo not drawn) [B.54] — within 1.5-fold, 2.3 nM
- Cc1c(S(=O)(=O)c2ccc3[nH]ncc3c2)cc(C(=O)NCc2nccc3ncn(C4CC4)c23)n1C [B.117] — 15-fold lower, 0.18 nM
- Cc1c(S(=O)(=O)c2ccc3[nH]ncc3c2)cc(C(=O)NC2CCc3ccc(C(F)(F)F)cc32)n1C (racemic) [B.72] — 12-fold higher, 33 nM
- Cc1c(S(=O)(=O)c2ccc3[nH]ncc3c2)cc(C(=O)NCc2c(F)cccc2OCCN(C)C)n1C [B.78] — within 1.5-fold, 2 nM
- Cc1c(S(=O)(=O)c2ccc3[nH]ncc3c2)cc(C(=O)NCc2c(F)ccc3c2CCCO3)n1C [B.57] — lower, < 0.15 nM
- Cc1c(S(=O)(=O)c2ccc3[nH]ncc3c2)cc(C(=O)NCc2cccc3c(F)nn(C4CC4)c23)n1C [B.35] — within 1.5-fold, 3.3 nM
- Cc1c(S(=O)(=O)c2ccc3[nH]ncc3c2)cc(C(=O)NCc2ncccc2C(F)(F)F)n1C [B.83] — 2-fold higher, 5.3 nM
- Cc1c(S(=O)(=O)c2ccc3[nH]ncc3c2)cc(C(=O)N[C@H]2Cc3ccccc32)n1C (single isomer, unassigned) [B.170] — within 1.5-fold, 2.5 nM
- Cc1ncoc1CNC(=O)c1cc(S(=O)(=O)c2ccc3[nH]ncc3c2)c(C)n1C [B.150] — 5.2-fold higher, 14 nM
- Cc1c(S(=O)(=O)c2ccc3[nH]ncc3c2)cc(C(=O)NCc2c[nH]c(=O)c3cccnc23)n1C [B.159] — 6.3-fold lower, 0.43 nM
- Cc1c(S(=O)(=O)c2ccc3[nH]ncc3c2)cc(C(=O)NCc2ncnc3ncn(C)c23)n1C [B.129] — lower, < 0.15 nM
